Columns and labels:
[1] = tested on: Botryotinia fuckeliana (Botrytis cinerea); experiment: Botryotinia fuckeliana (Botrytis cinerea) / liquid culture (gray mould); format: cell-based; conditions: 72 h, compared to untreated control, growth inhibition determined photometrically 3-4 days after application
[2] = tested on: Glomerella lagenarium (Colletotrichum lagenarium); experiment: Glomerella lagenarium (Colletotrichum lagenarium) / liquid culture (anthracnose); format: cell-based; conditions: Colletotrichum orbiculare, compared to untreated control, growth inhibition measured photometrically 3-4 days after application
Fusarium culmorum = experiment: microbe, parasite or virus in culture; format: cell-based; conditions: read-out: control of Fusarium culmorum
[3] = tested on: Monographella nivalis (Microdochium nivale); experiment: Monographella nivalis (Microdochium nivale) / liquid culture (foot rot cereals); format: cell-based; conditions: compared to untreated control, growth inhibition determined photometrically 4-5 days after application
[4] = tested on: Mycosphaerella graminicola (Septoria tritici); experiment: Mycosphaerella graminicola (Septoria tritici) / liquid culture (Septoria blotch); format: cell-based; conditions: Zymoseptoria tritici, compared to untreated control, growth inhibition determined photometrically 4-5 days after application
[5] = tested on: Magnaporthe grisea (Pyricularia oryzae); experiment: microbe, parasite or virus in culture; format: cell-based; conditions: read-out: control of Magnaporthe grisea
Sclerotinia sclerotiorum = experiment: microbe, parasite or virus in culture; format: cell-based; conditions: read-out: control of Sclerotinia sclerotiorum

SMILES | inhibition of growth at 20 ppm [1] [%] | inhibition of growth at 20 ppm [2] [%] | inhibition of growth at 20 ppm (Fusarium culmorum) [%] | inhibition of growth at 20 ppm [3] [%] | inhibition of growth at 20 ppm [4] [%] | melting point [°C] | inhibition of growth at 20 ppm [5] [%] | inhibition of growth at 20 ppm (Sclerotinia sclerotiorum) [%]
CC1CC(Cc2ccccc2)N=C(c2cnc3c(F)c(F)ccc3c2)O1 (single isomer, unassigned) [E-25, 4-benzyl-2-(7,8-difluoro-3-quinolyl)-6-methyl-5,6-dihydro-4H-1,3-oxazine] | ≥ 80 | ≥ 80 | ≥ 80 | ≥ 80 | ≥ 70 |  |  | 
CC1(CCl)CC(Cc2ccccc2)N=C(c2cnc3c(F)c(F)ccc3c2)O1 (stereo not shown) [E-1, 4-benzyl-6-(chloromethyl)-2-(7,8-difluoro-3-quinolyl)-6-methyl-4,5-dihydro-1,3-oxazine] | ≥ 80 |  | ≥ 80 | ≥ 80 | ≥ 70 |  |  | 
CC1(C)CC(Cc2ccccc2)N=C(c2cnc3c(C#N)cccc3c2)O1 (stereo not shown) [E-2, 3-(4-benzyl-6,6-dimethyl-4,5-dihydro-1,3-oxazin-2-yl)quinoline-8-carbonitrile] |  |  | ≥ 80 | ≥ 80 | ≥ 70 |  |  | 
CC1(C)CC(Cc2ccccc2)N=C(c2cnc3c(Cl)cccc3c2)O1 (stereo not shown) [E-3, 4-benzyl-2-(8-chloro-3-quinolyl)-6,6-dimethyl-4,5-dihydro-1,3-oxazine] | ≥ 80 |  |  | ≥ 80 | ≥ 70 | 150 to 152 |  | 
Cc1cccc2cc(C3=NC(Cc4ccccc4)CC(C)(C)O3)cnc12 (stereo not shown) [E-4, 4-benzyl-6,6-dimethyl-2-(8-methyl-3-quinolyl)-4,5-dihydro-1,3-oxazine] | ≥ 80 |  |  | ≥ 80 | ≥ 70 | 120 to 122 |  | 
CC1(C)CC(Cc2ccccc2)N=C(c2cnc3ccccc3c2)O1 (stereo not shown) [E-5, 4-benzyl-6,6-dimethyl-2-(3-quinolyl)-4,5-dihydro-1,3-oxazine] | ≥ 80 | ≥ 80 | ≥ 80 | ≥ 80 | ≥ 70 |  |  | 
CC1(C)CC(Cc2ccccc2)N=C(c2cnc3c(F)c(F)ccc3c2)S1 (stereo not shown) [E-6, 4-benzyl-2-(7,8-difluoro-3-quinolyl)-6,6-dimethyl-4,5-dihydro-1,3-thiazine] | ≥ 80 | ≥ 80 | ≥ 80 | ≥ 80 |  | 153 to 155 |  | 
CC1(Cc2ccccc2)CC(C)(C)SC(c2cnc3c(F)cccc3c2)=N1 (stereo not shown) [E-7, 4-benzyl-2-(8-fluoro-3-quinolyl)-4,6,6-trimethyl-5H-1,3-thiazine] | ≥ 80 | ≥ 80 | ≥ 80 | ≥ 80 | ≥ 70 |  | ≥ 80 | ≥ 80
CC1(C)CC(Cc2ccccc2)N=C(c2cnc3c(F)c(F)ccc3c2)O1 (stereo not shown) [E-8, 4-benzyl-2-(7,8-difluoro-3-quinolyl)-6,6-dimethyl-4,5-dihydro-1,3-oxazine] |  | ≥ 80 |  |  |  | 93 to 96 |  | 
CCC1(C)CC(C)(Cc2ccccc2)N=C(c2cnc3c(F)cccc3c2)O1 (stereo not shown) [E-9, 4-benzyl-6-ethyl-2-(8-fluoro-3-quinolyl)-4,6-dimethyl-5H-1,3-oxazine] | ≥ 80 | ≥ 80 | ≥ 80 | ≥ 80 | ≥ 70 |  | ≥ 80 | ≥ 80
C[C@@]1(Cc2ccccc2)C[C@](C)(CCl)OC(c2cnc3c(F)cccc3c2)=N1 [E-11, (4R,6R)-4-benzyl-6-(chloromethyl)-2-(8-fluoro-3-quinolyl)-4,6-dimethyl-5H-1,3-oxazine] | ≥ 80 | ≥ 80 | ≥ 80 | ≥ 80 | ≥ 70 |  | ≥ 80 | 
CC1(C)CC(Cc2ccccc2)(C(F)(F)F)N=C(c2cnc3c(F)cccc3c2)O1 (stereo not shown) [E-12, 4-benzyl-2-(8-fluoro-3-quinolyl)-6,6-dimethyl-4-(trifluoromethyl)-5H-1,3-oxazine] | ≥ 80 | ≥ 80 |  | ≥ 80 |  |  | ≥ 80 | 
CC1(C)CC(C)(C(F)(F)c2ccccc2)N=C(c2cnc3c(F)cccc3c2)O1 (stereo not shown) [E-14, 4-[difluoro(phenyl)methyl]-2-(8-fluoro-3-quinolyl)-4,6,6-trimethyl-5H-1,3-oxazine] | ≥ 80 | ≥ 80 |  | ≥ 80 | ≥ 70 | 101 to 105 | ≥ 80 | 
Cc1c(C2=NC(C)(Cc3ccccc3)CC(C)(C)O2)cnc2c(F)cccc12 (stereo not shown) [E-15, 4-benzyl-2-(8-fluoro-4-methyl-3-quinolyl)-4,6,6-trimethyl-5H-1,3-oxazine] | ≥ 80 | ≥ 80 |  | ≥ 80 | ≥ 70 |  | ≥ 80 | 
CC1(Cc2ccccc2)CC(C)(C)OC(c2cnc3c(F)cccc3c2)=N1 (stereo not shown) [E-17, 4-benzyl-2-(8-fluoro-3-quinolyl)-4,6,6-trimethyl-5H-1,3-oxazine] | ≥ 80 | ≥ 80 | ≥ 80 | ≥ 80 | ≥ 70 | 115 to 116 | ≥ 80 | 
CC1(C)CC(Cc2ccc(F)cc2)N=C(c2cnc3c(F)c(F)ccc3c2)O1 (stereo not shown) [E-18, 2-(7,8-difluoro-3-quinolyl)-4-[(4-fluorophenyl)methyl]-6,6-dimethyl-4,5-dihydro-1,3-oxazine] | ≥ 80 |  |  | ≥ 80 | ≥ 70 | 118 to 121 | ≥ 80 | ≥ 80
Fc1ccc2cc(C3=NC(Cc4ccccc4)CC(CI)O3)cnc2c1F (stereo not shown) [E-26, 4-benzyl-2-(7,8-difluoro-3-quinolyl)-6-(iodomethyl)-5,6-dihydro-4H-1,3-oxazine] | ≥ 80 |  | ≥ 80 |  |  | 137 to 139 |  | 
N#Cc1c(F)ccc2cc(C3=NC(Cc4ccccc4)CC4(CCCC4)O3)cnc12 (stereo not shown) [E-27, 3-(9-benzyl-6-oxa-8-azaspiro[4.5]dec-7-en-7-yl)-7-fluoro-quinoline-8-carbonitrile] | ≥ 80 |  |  |  |  |  |  | 
CC1(C)CC(Cc2ccccc2)N=C(c2cnc3c(C#N)c(F)ccc3c2)O1 (stereo not shown) [E-28, 3-(4-benzyl-6,6-dimethyl-4,5-dihydro-1,3-oxazin-2-yl)-7-fluoro-quinoline-8-carbonitrile] | ≥ 80 |  |  | ≥ 80 |  | 126 to 133 | ≥ 80 | 
CC1(C)CC(Cc2ccccc2)N=C(c2cnc3c(F)c(Cl)ccc3c2)O1 (stereo not shown) [E-29, 4-benzyl-2-(7-chloro-8-fluoro-3-quinolyl)-6,6-dimethyl-4,5-dihydro-1,3-oxazine] |  | ≥ 80 |  | ≥ 80 | ≥ 70 | 135 to 137 |  | 
CC1(C)CC(Cc2ccccc2)N=C(c2cc3cccc(F)c3nc2F)O1 (stereo not shown) [E-30, 4-benzyl-2-(2,8-difluoro-3-quinolyl)-6,6-dimethyl-4,5-dihydro-1,3-oxazine] | ≥ 80 |  | ≥ 80 | ≥ 80 | ≥ 70 | 105 to 107 | ≥ 80 | 
CC1(C)CC(Cc2ccccc2)N=C(c2cnc3cc(F)ccc3c2)O1 (stereo not shown) [E-32, 4-benzyl-2-(7-fluoro-3-quinolyl)-6,6-dimethyl-4,5-dihydro-1,3-oxazine] | ≥ 80 |  | ≥ 80 | ≥ 80 | ≥ 70 |  |  | 
CC1(C)CC(Cc2ccccc2)N=C(c2cnc3cc(Cl)ccc3c2)O1 (stereo not shown) [E-33, 4-benzyl-2-(7-chloro-3-quinolyl)-6,6-dimethyl-4,5-dihydro-1,3-oxazine] |  |  |  | ≥ 80 | ≥ 70 |  |  | 
CC1(C)CC(Cc2ccccc2)N=C(c2cnc3c(F)c(C#N)ccc3c2)O1 (stereo not shown) [E-34, 3-(4-benzyl-6,6-dimethyl-4,5-dihydro-1,3-oxazin-2-yl)-8-fluoro-quinoline-7-carbonitrile] |  | ≥ 80 |  | ≥ 80 |  |  |  | 
Fc1ccc2cc(C3=NC(Cc4ccccc4)CC4(CCCC4)O3)cnc2c1Cl (stereo not shown) [E-35, 9-benzyl-7-(8-chloro-7-fluoro-3-quinolyl)-6-oxa-8-azaspiro[4.5]dec-7-ene] | ≥ 80 |  |  | ≥ 80 | ≥ 70 | 150 to 151 |  | 
CC1(C)CC(Cc2ccccc2)N=C(c2cc3cccc(F)c3nc2Cl)O1 (stereo not shown) [E-36, 4-benzyl-2-(2-chloro-8-fluoro-3-quinolyl)-6,6-dimethyl-4,5-dihydro-1,3-oxazine] |  |  |  |  | ≥ 70 |  |  | 
CC1(Cc2ccccc2)CC(C)(C)OC(c2cnc3c(F)cccc3c2)=N1 (stereo not shown) [F-1] |  |  |  |  |  | 109 to 111 |  | 
CC1(Cc2ccccc2)CC(C)(C)OC(c2cnc3c(F)cccc3c2)=N1 (stereo not shown) [F-2] |  |  |  |  |  | 111 to 112 |  | ≥ 80
CC1(C)CC(Cc2ccccc2)N=C(c2cnc3c(F)c(F)ccc3c2)O1 (stereo not shown) [F-6] |  |  |  |  |  | 102 to 105 |  | 

From patent publication US12012399B2, “Microbiocidal quinoline dihydro-(thiazine)oxazine derivatives” (priority 2018, dated 2024)
